Data published in US20250290928A1, “METHOD, KIT AND DEVICE FOR DETECTING EXTRACELLULAR VESICLES” (priority 2022, published 2025).
*: point of attachment. 5FAM = O=C1OC2(c3ccc(O)cc3Oc3cc(O)ccc32)c2ccc(C(=O)*)cc21; TQ2 = quencher

Test system: MMP14 in the HT1080 culture supernatants and the culture medium samples
Assay: Evaluation of MMP14 activity of HT1080 culture supernatants, culture media and recovered liquids (exoEasy, qEV) with 96-well plate
Type: biochemical, Human
Details: for Fluorescence change: after 2 hours; for change in fluorescence intensity after 2 hours: reporter 2.5 μM, 30° C.
Method: The MMP14 activity was evaluated with a 96-well plate (manufactured by Thermo Fisher Scientific Inc., model number: 137101). […] For measurement wavelengths, an excitation wavelength of 485±20 nm and a fluorescence wavelength of 528±20 nm were used.
Human fibrosarcoma HT1080 cells (KAC Co., Ltd.) were cultured in three kinds of cell culture media described later. In addition, 100 mm cell culture Dish (Nunclon Delta Surface) (manufactured by Thermo Fisher Scientific Inc.) was used as a cell culture container.
Each of the culture supernatants was recovered from each of the dishes in a centrifuge tube, and centrifuged at 2,000×g for 10 minutes at 4° C. Each of the supernatants after the centrifugation was recovered in a fresh container with a small amount of the culture medium remaining so as not to incorporate the precipitated cells. Each of the culture supernatants was filtered through a syringe with a 0.22 μm filter (manufactured by Merck KGaA) so that contaminants such as cell fragments were removed. After that, the filtrate was recovered in a fresh container, and stored at 4° C.
From each of the HT1080 culture supernatants described in the section “(Recovery of Culture Supernatant)”, 100 μL of each of the supernatants after centrifugation and 100 μL of each of the supernatants after filtration through a 0.22 μm filter were each aliquoted, and the buffer (4) was added to the aliquots to provide 1 mL of solutions. The concentration of each of the solutions is 1/10 of the concentration of each of the HT1080 culture supernatants.
In addition, for detection of MMP14 activity, 1 mM Custom #1 was diluted with the buffer (4) to prepare a 5 μM MMP14 detection solution.
50 μL of the MMP14 detection solution was added to 50 μL of each of the samples, a reaction was performed at 30° C., and MMP14 activity was evaluated.
Extracellular vesicles were recovered from 3 mL of each of the recovered culture supernatants with exoEasy Maxi Kit. In this case, the recovery was performed according to the protocol included in the kit. From 3 mL of each of the culture supernatants, 450 μL of each of recovered liquids was obtained. Each of the recovered liquids has a concentration 6.67 times the original concentration of each of the culture supernatants. Each of the recovered liquids was diluted 66.7-fold to prepare 100 μL of a sample at 1/10 of the original concentration of each of the culture supernatants.
Extracellular vesicles were recovered from 3 mL of each of the recovered culture supernatants with qEV. In this case, the recovery was performed according to the protocol included in the kit. From 3 mL of each of the culture supernatants, 700 μL of each of fraction recovered liquids in series was obtained. Each of the recovered liquids was used as a sample as it was.

With “[5-FAM]GRIGFLRTAK(TQ2)[OH] (5FAM-GRIGFLRTAK(TQ2)-OH) [Custom #1]” the Fluorescence change (Culture medium Exo-FBS, HT1080 culture Absent, None (VI)) was 50,117 ΔRFU, the Fluorescence change (Culture medium Exo-FBS, HT1080 culture Present, Centrifugation + filtration (V)) was 45,429 ΔRFU and the Fluorescence change (Culture medium Exo-FBS, HT1080 culture Present, Only centrifugation (IV)) was 46,172 ΔRFU. The Fluorescence change (Culture medium FBS, HT1080 culture Absent, None (III)) was 66,945 ΔRFU, the Fluorescence change (Culture medium FBS, HT1080 culture Present, Centrifugation + filtration (II)) was 65,200 ΔRFU and the Fluorescence change (Culture medium FBS, HT1080 culture Present, Only centrifugation (I)) was 64,773 ΔRFU. For the same substance, the Fluorescence change (Culture medium MEM (×10, supernatant without dilution), HT1080 culture Present, Centrifugation + filtration) was 1,515 ΔRFU, the Fluorescence change (Culture medium MEM (×10, supernatant without dilution), HT1080 culture Present, Only centrifugation) was 2,494 ΔRFU and the Fluorescence change (Culture medium MEM, HT1080 culture Absent, None (IX)) was −311 ΔRFU. For the same substance, the Fluorescence change (Culture medium MEM, HT1080 culture Present, Centrifugation + filtration (VIII)) was 186 ΔRFU, the Fluorescence change (Culture medium MEM, HT1080 culture Present, Only centrifugation (VII)) was −240 ΔRFU and the “change in fluorescence intensity after 2 hours” value (Example 56, exoEasy recovered liquid from the Exo-FBS) was “the fluorescence intensity was changed”. The “change in fluorescence intensity after 2 hours” value (Example 56, exoEasy recovered liquid from the MEM) was “no change in fluorescence intensity was recognized”, the Fluorescence change (exoEasy recovered liquid, Culture medium Exo-FBS, HT1080 culture Present) was 6,663 ΔRFU and the Fluorescence change (exoEasy recovered liquid, Culture medium MEM, HT1080 culture Present) was −313 ΔRFU. The Fluorescence change (qEV recovered liquid, Exo-FBS, HT1080 culture Present, Fraction # 1) was 336 ΔRFU, the Fluorescence change (qEV recovered liquid, Exo-FBS, HT1080 culture Present, Fraction # 2) was 318 ΔRFU and the Fluorescence change (qEV recovered liquid, Exo-FBS, HT1080 culture Present, Fraction # 3) was 271 ΔRFU. For the same substance, the Fluorescence change (qEV recovered liquid, Exo-FBS, HT1080 culture Present, Fraction # 4) was 285 ΔRFU, the Fluorescence change (qEV recovered liquid, Exo-FBS, HT1080 culture Present, Fraction # 5) was 302 ΔRFU and the Fluorescence change (qEV recovered liquid, Exo-FBS, HT1080 culture Present, Fraction # 6) was 325 ΔRFU. For the same substance, the Fluorescence change (qEV recovered liquid, Exo-FBS, HT1080 culture Present, Fraction # 7) was 1,869 ΔRFU, the Fluorescence change (qEV recovered liquid, Exo-FBS, HT1080 culture Present, Fraction # 8) was 7,249 ΔRFU and the Fluorescence change (qEV recovered liquid, Exo-FBS, HT1080 culture Present, Fraction # 9) was 9,417 ΔRFU. For the same substance, the Fluorescence change (qEV recovered liquid, Exo-FBS, HT1080 culture Present, Fraction # 10) was 17,731 ΔRFU, the Fluorescence change (qEV recovered liquid, Exo-FBS, HT1080 culture Present, Fraction # 11) was 30,226 ΔRFU and the Fluorescence change (qEV recovered liquid, Exo-FBS, HT1080 culture Present, Fraction # 12) was 44,826 ΔRFU. For the same substance, the Fluorescence change (qEV recovered liquid, Exo-FBS, HT1080 culture Present, Fraction # 13) was 61,704 ΔRFU, the Fluorescence change (qEV recovered liquid, Exo-FBS, HT1080 culture Present, Fraction # 14) was 76,810 ΔRFU and the Fluorescence change (qEV recovered liquid, MEM, HT1080 culture Present, Fraction # 1) was 245 ΔRFU. The Fluorescence change (qEV recovered liquid, MEM, HT1080 culture Present, Fraction # 2) was 285 ΔRFU, the Fluorescence change (qEV recovered liquid, MEM, HT1080 culture Present, Fraction # 3) was 245 ΔRFU and the Fluorescence change (qEV recovered liquid, MEM, HT1080 culture Present, Fraction # 4) was 304 ΔRFU. The Fluorescence change (qEV recovered liquid, MEM, HT1080 culture Present, Fraction # 5) was 1,450 ΔRFU, the Fluorescence change (qEV recovered liquid, MEM, HT1080 culture Present, Fraction # 6) was 697 ΔRFU and the Fluorescence change (qEV recovered liquid, MEM, HT1080 culture Present, Fraction # 7) was 10,198 ΔRFU. For the same substance, the Fluorescence change (qEV recovered liquid, MEM, HT1080 culture Present, Fraction # 8) was 11,966 ΔRFU, the Fluorescence change (qEV recovered liquid, MEM, HT1080 culture Present, Fraction # 9) was 1,424 ΔRFU and the Fluorescence change (qEV recovered liquid, MEM, HT1080 culture Present, Fraction # 10) was 550 ΔRFU. For the same substance, the Fluorescence change (qEV recovered liquid, MEM, HT1080 culture Present, Fraction # 11) was 506 ΔRFU, the Fluorescence change (qEV recovered liquid, MEM, HT1080 culture Present, Fraction # 12) was 536 ΔRFU and the Fluorescence change (qEV recovered liquid, MEM, HT1080 culture Present, Fraction # 13) was 489 ΔRFU. The Fluorescence change (qEV recovered liquid, MEM, HT1080 culture Present, Fraction # 14) was 446 ΔRFU.
